In paper PMC6155732, “Development of a UPLC-TQ/MS Approach for the Determination of Eleven Bioactive Components in Haizao Yuhu Decoction Plus-Minus Haizao and Gancao Drug Combination after Oral Administration in a Rat Model of Hypothyroidism” (Molecules : A Journal of Synthetic Chemistry and Natural …, 2016):

Test: Pharmacokinetics of compounds 1–11 in rat plasma (UPLC-TQ/MS) after oral administration of HYD and plus-minus Haizao/Gancao decoctions
Type: in vivo, Wistar rats (PTU-induced model of hypothyroidism)
Conditions: Wistar, model rats, n = 6, mean ± S.D.
Protocol: Plasma samples (200 μL) and IS solution (50 μL, 1215 ng/mL for diphenhydramine, 476 ng/mL for chloromycetin) were added to an Eppendorf tube, and this mixture was extracted with methanol (550 μL) by shaking on a vortex-mixer for 2 min, and centrifuged for 10 min at 13,000 rpm. The contents were evaporated to dryness in a rotary evaporator at 37 °C. The residue was reconstituted in methanol (100 μL) and centrifuged (13,000 rpm for 10 min). The supernatant was transferred to an autosample vial and an aliquot of 5 μL was injected onto the UPLC-MS/MS system for analysis.
The developed and validated method was used to evaluate the pharmacokinetics of the eleven compounds after oral administration of different fractions in […] (Figure 3). […] The pharmacokinetic parameters including half-life (T1/2), maximum plasma concentration (Cmax), time to reach the maximum concentration (Tmax), and area under concentration–time curve (AUC0~t) were calculated by a non-compartment model and are shown in Table 6.
A considerable increase in thyroid stimulating hormone (TSH) and decrease in triiodothyronine (T3) and tetraiodothyronine (T4) in serum are considered to be markers of successful hypothyroid rat model preparation. PTU is the classic drug used to replicate hypothyroidism in rat models. It is generally thought that PTU can decrease the level of thyroid hormone in a hypothyroid rat model by inhibiting the activity of TPO [31, 32]. Model Wistar rats were administered PTU intragastrically at a dose of 10 mg/kg (QD) for 2 weeks to establish hypothyroidism. Serum from model rats was collected on the last day of PTU administration and the T3, T4 and TSH levels were determined using test kits. Wistar rats with a considerable increase in […] and a decrease in serum T3 and T4 were considered to have hypothyroidism and were selected for subsequent pharmacokinetic studies.
For the pharmacokinetic studies, model Wistar rats were divided into six groups (n = 6 per group). Rats in the model HYD groups were administered HYD at a dose of 12 mL/kg intragastrically. In the model HYD-GC groups, HYD-GC (11 mL/kg) was administered. In the model HYD-HZ groups, HYD-HZ (11 mL/kg) was administered. In the model HYD-GC-HZ groups, HYD-GC-HZ (10 mL/kg) was administered. In the model GH groups, GH (2 mL/kg) was administered. In the model GC groups, GC (1 mL/kg) was administered. Blood samples were collected at specific time points before (0 min) and after oral administration (5, 10, 20, 40, 60, 120, 240, 480, 720, 1440 min). A total of 360 blood samples were collected. All blood samples were immediately centrifuged at 2500 rpm for 10 min to obtain plasma, which was labeled and frozen at −80 °C until analysis. Blank plasma was obtained from the rats without oral administration and was used to investigate the assay development and validation.
To determine the pharmacokinetic parameters of compounds 1–11 in different groups, concentration–time data were analyzed by DAS 3.2 software (Mathematical Pharmacology Professional Committee of China, Shanghai, China, 2011). Data were expressed as the mean and standard deviation (S.D.) with triplicate measurements. The identification of significant differences between different groups was carried out using the Student’s t-test. A p value < 0.05 was considered statistically significant.

[1] = 10 mL/kg, group HYD-GH (HYD minus Gancao and Haizao; HYD-GC-HZ), 10 mL/kg intragastrically
[2] = 11 mL/kg, group HYD-GC (HYD minus Gancao), 11 mL/kg intragastrically
[3] = 11 mL/kg, group HYD-HZ (HYD minus Haizao), 11 mL/kg intragastrically
[4] = 12 mL/kg, group HYD, 12 mL/kg intragastrically
[5] = 1 mL/kg, group GC (extract of Gancao), 1 mL/kg intragastrically
[6] = 2 mL/kg, group GH (extract of Gancao and Haizao), 2 mL/kg intragastrically

| SMILES | AUC(0-t) [1] [ng·h/mL] | Cmax [1] [ng/mL] | Tmax [1] [h] | half-life [1] [h] | AUC(0-t) [2] [ng·h/mL] | Cmax [2] [ng/mL] | Tmax [2] [h] | half-life [2] [h] | AUC(0-t) [3] [ng·h/mL] | Cmax [3] [ng/mL] | Tmax [3] [h] | half-life [3] [h] | AUC(0-t) [4] [ng·h/mL] | Cmax [4] [ng/mL] | Tmax [4] [h] | half-life [4] [h] | also measured |
| --- | --- | --- | --- | --- | --- | --- | --- | --- | --- | --- | --- | --- | --- | --- | --- | --- | --- |
| COc1ccc(-c2cc(=O)c3c(OC)c(OC)c(OC)c(OC)c3o2)cc1OC [Compound 9, nobiletin] | 1180 ± 539 | 311 ± 126 | 0.46 ± 0.37 | 3.26 ± 3.53 | 2010 ± 1020 | 501 ± 183 | 0.89 ± 0.27 | 4.53 ± 1.89 | 2290 ± 55.5 | 322 ± 88.2 | 0.19 ± 0.07 | 16.2 ± 7.06 | 2870 ± 285 | 1000 ± 178 | 0.67 | 6.03 ± 1.95 |  |
| C[C@@H]1O[C@@H](O[C@H]2[C@H](Oc3cc(O)c4c(c3)O[C@H](c3ccc(O)cc3)CC4=O)O[C@H](CO)[C@@H](O)[C@@H]2O)[C@H](O)[C@H](O)[C@H]1O [Compound 2, naringin] | 565 ± 352 | 424 ± 188 | 0.15 ± 0.1 | 1.23 ± 0.15 | 561 ± 278 | 271 ± 75.4 | 0.19 ± 0.07 | 1.12 ± 0.28 | 1060 ± 244 | 463 ± 194 | 0.5 ± 0.18 | 2.59 ± 2.02 | 912 ± 198 | 612 ± 200 | 0.17 ± 0.09 | 11.3 ± 4.86 |  |
| O=C1C[C@@H](c2ccc(O)cc2)Oc2cc(O)ccc21 [Compound 6, liquiritigenin] |  |  |  |  |  |  |  |  | 2150 ± 629 | 276 ± 66.5 | 0.79 ± 1.58 | 3.94 ± 0.59 |  | 358 ± 91.9 | 2.75 ± 4.07 | 4.05 ± 0.77 | AUC(0-t) [5]: 1000 ± 946 ng·h/mL; Cmax [5]: 220 ± 47.4 ng/mL; Tmax [5]: 2.5 ± 1.73 h; half-life [5]: 2.41 ± 1.57 h; AUC(0-t) [6]: 681 ± 771 ng·h/mL; Cmax [6]: 211 ± 70.3 ng/mL; Tmax [6]: 1.5 ± 1.23 h; half-life [6]: 4.12 ± 3.73 h |
| COc1c2ccoc2cc2oc(=O)ccc12 [Compound 8, bergapten] | 786 ± 369 | 125 ± 35.6 | 0.11 ± 0.04 | 9.6 ± 10.6 | 470 ± 130 | 183 ± 47 | 0.61 ± 0.14 | 1.17 ± 0.1 | 649 ± 132 | 192 ± 54.5 | 0.81 ± 0.34 | 1.92 ± 1.75 | 819 ± 25.7 | 227 ± 57.8 | 0.33 ± 0.21 | 1.56 ± 1.02 |  |
